Experimental findings from patent publication US20200231638A1, “STABILIZED ANTI-MICROBIAL PEPTIDES” (priority 2015, published 2020) are described below.

Converted amounts (≈) assume the structure as drawn. Bridge positions count the residues as written; N and C are the ends. Square brackets hold non-standard residues; d marks the D form. Peptide text beside a SMILES is read from it. R8 = C=CCCCCCC[C@@](C)(N)C(=O)O; S5 = C=CCCC[C@](C)(N)C(=O)O; Nle = CCCC[C@H](N)C(=O)O

Series [1] deals with E. coli. It is filed as cell-based, Escherichia coli. In a few lines:
(§1)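 Broth microdilution in anion-exchange-refined Mueller-Hinton broth; serially diluted peptide mixed with bacteria at 5×10^5 CFU/ml final inoculum. Incubated 20-24 hours at 37° C. MIC taken as lowest peptide concentration with no visible growth.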

For series [2], the system named is S. marcescens. It counts as cell-based. Here is the method: Antimicrobial Activity Assay:
The following microbroth dilution protocol was adapted to determine the minimum inhibitory concentration (MIC) of each peptide. First, Mueller-Hinton broth (MHB) was passed through an anion exchange column to remove polyanionic species and generate refined MHB. […] Briefly, bacterial cells was grown overnight in refined MHB at 37° C. and then diluted and allowed to grow again for several hours. Serial dilutions of peptide stocks in water (10 μl) were prepared using clear round-bottom polypropylene 96-well plates. Then 90 μl of bacteria in refined MHB was added to give a final inoculum of 5×10^5 CFU/ml. The plates were then covered with porous tape to reduce evaporation, and incubated for 20-24 hours at 37° C. The MIC is the minimum peptide concentration at which no visible growth was observed.

Series [3] deals with B. cereus. It is filed as cell-based, Bacillus cereus. The method in brief:
as §1

The nature of series [4]: Circular dichroism spectroscopy (α-helicity). The note with it: for α-helicity by CD in water, absence of TFE: aqueous solution, no TFE. It is filed as physicochemical. Here is the method: To determine the helicity of the panel of stapled magainin II analogues, the peptides were dissolved in water using CD spectroscopy in the presence and absence of trifluoroethanol (TFE; 50% v/v), a helix-promoting solvent. […] Levels of helicity ranged from approximately 34% for MagStap 2 to 100% for MagStap 1 and 3, as compared to an idealized α-helical peptide. […] When the helicity in the presence of TFE was measured, most of the stapled analogues were 50-60% helical except for MagStap 3, which retained 100% α-helical content.
Circular Dichroism Spectroscopy:
Compounds were dissolved in an aqueous solution (e.g. 5 mM potassium phosphate solution at pH 7, or distilled H2O, to concentrations of 25-50 μM). Circular dichroism (CD) spectra were obtained on a spectropolarimeter (Aviv) using standard measurement parameters (e.g., temperature, 37° C.; wavelength, 190-260 nm; step resolution, 0.5 nm; speed, 20 nm/sec; accumulations, 10; response, 1 sec; bandwidth, 1 nm; path length, 0.1 cm). The α-helical content of each peptide was calculated by dividing the mean residue ellipticity by the reported value for a model helical decapeptide (see, e.g., Yang et al., Meth Enzymol. 130:208 (1986)).
For orientation: Circular dichroism is widely used to follow secondary structure.

Series [5] deals with S. aureus. It counts as cell-based, Staphylococcus aureus. The method in brief:
as §1

Series [6] concerns P. aeruginosa. It is filed as cell-based, Pseudomonas aeruginosa. In a few lines: as §1
The subject of series [7] is human red blood cells. It counts as cell-based. The method in brief:
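Hemolysis expressed as absorbance of released hemoglobin (570 nm) normalized between untreated and 1% Triton-X100 controls, with MHC taken as peptide concentration giving under 1% release. Peptide dilutions were exposed for 1 h at 37° C to a 1% (v/v) suspension of washed human red cells in PBS.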

With `CCCC[C@H](NC(=O)[C@@H](NC(=O)[C@H](CCC(=O)O)NC(=O)[C@H](C)NC(=O)[C@@H](NC(=O)[C@H](Cc1ccccc1)NC(=O)[C@H](C)NC(=O)[C@]1(C)CCCC=CCCCCCC[C@@](C)(NC(=O)[C@H](CC(C)C)NC(=O)[C@H](Cc2ccccc2)NC(=O)[C@H](CCCCN)NC(=O)CNC(=O)[C@@H](NC(=O)CN)[C@@H](C)CC)C(=O)N[C@@H](C)C(=O)N[C@@H](C)C(=O)N[C@@H](CCCCN)C(=O)N[C@@H](CCCCN)C(=O)N[C@@H](Cc2ccccc2)C(=O)N[C@@H](C)C(=O)N1)C(C)C)[C@@H](C)CC)C(=O)N[C@@H](CC(N)=O)C(=O)N[C@@H](CO)C(N)=O` [MagStap 1] (H-GIGKFL[R8]AAKKFA[S5]AFVAEI[Nle]NS-NH2; staple 7-14; N-terminus assumed), the “MIC E. coli” value in series [1] amounted to 12.5 µg/mL (≈ 5.03 µM). For the same molecule, in series [2], the “MIC S. marcescens” value was >50 µg/mL. Besides, the “MIC B. cereus” value in series [3] turned out to be 12.5 µg/mL (≈ 5.03 µM). In addition, the “α-helicity by CD in water, absence of TFE” value in series [4] turned out to be 100%.
`CC[C@H](C)[C@H](NC(=O)CN)C(=O)NCC(=O)N[C@@H](CCCCN)C(=O)N[C@@H](Cc1ccccc1)C(=O)N[C@@H](CC(C)C)C(=O)N[C@@H](CCCCN)C(=O)N[C@@H](CCCCN)C(=O)N[C@@H](C)C(=O)N[C@@H](CCCCN)C(=O)N[C@]1(C)CCCCCCC=CCCC[C@@](C)(C(=O)N[C@H](C(=O)N[C@@H](CC(C)C)C(=O)N[C@@H](CCCCN)C(=O)N[C@@H](CCCCN)C(N)=O)[C@@H](C)CC)NC(=O)[C@H](C(C)C)NC(=O)[C@H](Cc2ccccc2)NC(=O)[C@H](C)NC(=O)[C@H](CCCCN)NC(=O)CNC(=O)[C@H](Cc2ccccc2)NC1=O` [PexStap 5] (H-GIGKFLKKAK[R8]FGKAFV[S5]ILKK-NH2; staple 11-18; N-terminus assumed): the “MIC E. coli” value in series [1] turned out to be 1.6 µg/mL (≈ 0.637 µM). The “MIC S. marcescens” value in series [2] was >50 µg/mL. Besides, the “MIC B. cereus” value in series [3] came out at 1.6 µg/mL (≈ 0.637 µM). Also, the “MIC S. aureus” value in series [5] turned out to be 3.1 µg/mL (≈ 1.23 µM). The “MIC P. aeruginosa” value in series [6] stood at 1.6 µg/mL (≈ 0.637 µM). In addition, in series [7], the “hemolytic activity (in words)” value is “higher levels of hemolytic activity when compared to PexStap2 and PexStap6”. Besides, the “α-helicity by CD in the presence of TFE” value in series [4] (TFE 50% v/v) is recorded as “around 83%”.
Turning to `CCCC[C@H](NC(=O)[C@@H](NC(=O)[C@H](CCC(=O)O)NC(=O)[C@H](C)NC(=O)[C@@H](NC(=O)[C@H](Cc1ccccc1)NC(=O)[C@]1(C)CCCC=CCCCCCC[C@@](C)(NC(=O)[C@H](Cc2c[nH]cn2)NC(=O)[C@H](CC(C)C)NC(=O)[C@H](Cc2ccccc2)NC(=O)[C@H](CCCCN)NC(=O)CNC(=O)[C@@H](NC(=O)CN)[C@@H](C)CC)C(=O)N[C@@H](C)C(=O)N[C@@H](CCCCN)C(=O)N[C@@H](CCCCN)C(=O)N[C@@H](Cc2ccccc2)C(=O)N[C@@H](C)C(=O)N[C@@H](CCCCN)C(=O)N1)C(C)C)[C@@H](C)CC)C(=O)N[C@@H](CC(N)=O)C(=O)N[C@@H](CO)C(N)=O` [MagStap 2] (H-GIGKFLH[R8]AKKFAK[S5]FVAEI[Nle]NS-NH2; staple 8-15; N-terminus assumed), the “MIC E. coli” value in series [1] stood at 3.1 µg/mL (≈ 1.19 µM). In series [2], the “MIC S. marcescens” value was >50 µg/mL. Moreover, the “MIC B. cereus” value in series [3] was 3.1 µg/mL (≈ 1.19 µM). Also, the “α-helicity by CD in water, absence of TFE” value in series [4] is on record as “approximately 34%”.
